Results: patent EP0579833B1, “ETHANOLAMINE DERIVATIVES WITH ANTI-POLLAKIURIA ACTIVITY” (FUJISAWA PHARMACEUTICAL CO., LTD., priority 1991, dated 1992)

How the values were obtained:
[1] = test system: isolated rat distal colon; experiment: Effect on isolated rat distal colon (spontaneous contractions, organ bath); assay type: tissue-based; settings: spontaneous contractions of distal colon strip from male SD rats, Tyrode solution, 37°C, 0.5 g tension, observed over 30 minutes
Experimental: Male SD rats (l80∼230 g) were used. Animals were fasted for 24 hours prior to experiment. Distal colon was removed immediately after sacrifice and placed in an organ bath containing 25 ml Tyrode solution aerating with 95% O2, 5% CO2 at 37°C. The strip was mounted under 0.5 g tension and spontaneous contractions were recorded isometrically. After the motility was of a uniform size, test compound was added to an organ bath and the contractions were observed over a 30 minutes period. Effect of test compound was calculated by comparing contractions before and after test compound.

[2] = test system: isolated non-pregnant rat uterus; experiment: Effect on isolated non-pregnant rat uterus (spontaneous contractions, organ bath); design: species or system tissue; settings: spontaneous contractions of uterine horn strip from estradiol-treated female SD rats, Locke solution, 37°C, 1 g tension, observed over 20 minutes
Experimental: Female SD rats (l50∼l80 g) were used. 48 and 24 hours prior to use, rats were given estradiol (ovahormon benzoat : Trademark, Teikoku Hormone Mfg. Co., Ltd.) subcutaneously at a dose of 40 µg/rat to induce oestrus. The animals were killed and uterine horns were removed. Each strip was placed in an organ bath containing 25 ml Locke solution aerating with 95% O2, 5% CO2 at 37°C under l g tension. Contractions were recorded isometrically. After the spontaneous contractions were of a uniform size, test compound was added to organ bath. The motility was observed over a 20 minutes period. Effect of test compound was calculated by comparing contractions before and after test compound.

(1R,1'R,2'R)- and (1R,1'S,2'S)-1-(3-chlorophenyl)-2-[(7-ethoxycarbonylmethoxy-l-hydroxy-l,2,3,4-tetrahydro-2- naphthyl)amino]ethanol hydrochloride [Example 2]
IC50 [1]: 1.9 nM
IC50 [2]: 510 nM
